The values that follow come from BindingDB's records for PubMed 8632757 (Merck Sharp & Dohme Research Laboratories, 1996).

pKi: −log10 of the molar value. Bounds are passed on as bounds.

In assay [1] the target is Gamma-aminobutyric acid receptor subunit alpha-6 (Homo sapiens, UniProt Q16445).
In assay [2] the target is T1, Gamma-aminobutyric acid receptor subunit alpha-1 (Homo sapiens, UniProt P14867).
T1 sequence (P14867 whole entry): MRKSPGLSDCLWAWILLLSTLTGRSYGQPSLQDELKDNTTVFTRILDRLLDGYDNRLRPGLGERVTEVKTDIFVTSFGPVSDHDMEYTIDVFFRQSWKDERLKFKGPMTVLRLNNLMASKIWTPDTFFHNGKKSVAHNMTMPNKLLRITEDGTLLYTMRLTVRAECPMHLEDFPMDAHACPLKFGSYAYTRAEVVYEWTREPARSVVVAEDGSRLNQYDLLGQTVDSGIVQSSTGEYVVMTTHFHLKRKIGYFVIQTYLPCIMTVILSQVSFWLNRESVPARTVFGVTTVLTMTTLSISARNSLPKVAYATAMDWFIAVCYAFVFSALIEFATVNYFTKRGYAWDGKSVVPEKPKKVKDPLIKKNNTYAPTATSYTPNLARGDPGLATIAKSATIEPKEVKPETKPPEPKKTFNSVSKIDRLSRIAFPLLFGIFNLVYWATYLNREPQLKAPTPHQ

Chain of Gamma-aminobutyric acid receptor subunit alpha-6 (Q16445 whole entry): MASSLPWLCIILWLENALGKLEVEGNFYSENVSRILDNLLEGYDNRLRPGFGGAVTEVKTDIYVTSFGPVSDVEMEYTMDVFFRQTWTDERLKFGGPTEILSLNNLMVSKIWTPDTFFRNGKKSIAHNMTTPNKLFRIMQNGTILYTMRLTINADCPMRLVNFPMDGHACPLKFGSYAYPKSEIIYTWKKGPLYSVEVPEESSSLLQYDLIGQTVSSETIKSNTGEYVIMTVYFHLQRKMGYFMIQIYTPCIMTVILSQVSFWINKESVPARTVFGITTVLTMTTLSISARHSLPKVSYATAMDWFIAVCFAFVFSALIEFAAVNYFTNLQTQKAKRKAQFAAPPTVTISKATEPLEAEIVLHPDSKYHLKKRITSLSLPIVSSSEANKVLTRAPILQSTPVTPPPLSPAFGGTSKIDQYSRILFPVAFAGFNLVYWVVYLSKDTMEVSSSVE

Turning to `CN1C(=O)CN=C(c2ccccc2)c2cc(Cl)ccc21`, the pKi (as a rule, the Ki on a negative log10 scale, so that one unit is a factor of ten) in assay [1] was less than 5.00.

Turning to `Cc1nnc2ccc(-c3cccc(C(F)(F)F)c3)nn12`, the pKi was 7.05 in assay [2] and less than 5.00 in assay [1].

For `COC(=O)c1cc2c(cn1)[nH]c1ccccc12`, the negative-log Ki (pKi) in assay [2] was 9.00; in assay [1], 5.69.

`CC(C)(C)OC(=O)c1ncn2c1C1CCCN1C(=O)c1c(Br)cccc1-2` (stereo not drawn) [8-Bromo-7-oxo-3b,4,5,6-tetrahydro-7H-2,6a,11b-triaza-benzo[g]cyclopenta[e]azulene-3-carboxylic acid tert-butyl ester] had a negative logarithm of the Ki (pKi) in assay [1] of 7.90.

Take `Cc1ccc(-c2nc3ccc(C)cn3c2CC(=O)N(C)C)cc1` [Ambien]: the negative-log Ki (pKi) in assay [1] is less than 5.00.

Take `CC(C)c1nc(-c2ncn3c2CN(C)C(=O)c2c(Cl)cccc2-3)no1` [FG 8205]: the negative logarithm of the Ki (pKi) in assay [2] is 9.17; in assay [1], 6.64.

In assay [1], `Cc1nnc2n1-c1ccc(Cl)cc1C(c1ccccc1Cl)=NC2` [Halcion] showed a pKi of less than 5.00.

In the case of `CCc1c(C(=O)OC)ncc2[nH]c3cc(OC)c(OC)cc3c12` [NSC_104999], the pKi in assay [2] is 7.95; in assay [1], 6.87.

Regarding `CCOC(=O)c1ncn2c1CN(C)C(=O)c1cc(N=[N+]=[N-])ccc1-2` [RO-154513], the pKi in assay [2] is 8.59.
